# Results reported in PMC6130761, “Isolation, crystal structure determination and cholinesterase inhibitory potential of isotalatizidine hydrate from Delphinium denudatum” (Pharmaceutical Biology, 2016).
# Legend:
# [1] = target: T1, AChE (Electric-eel EC 3.1.1.7) (Electrophorus electricus, UniProt O42275); assay: biochemical; type: biochemical; settings: for Type of inhibition (AChE): Lineweaver-Burk, Dixon plots and replots, 50, 75, 100 μM of compound 1
# T1 construct: purchased Sigma Aldrich
# [2] = target: T2, BChE (horse-serum E.C 3.1.1.8) (Equus caballus, UniProt P81908); assay: Cholinesterase inhibition assay (Ellman spectrophotometric method), BChE; type: biochemical; settings: for Type of inhibition (BChE): Lineweaver-Burk, Dixon plots and replots, 50, 75, 100 μM of compound 1
# T2 construct: purchased Sigma Aldrich; host or cells: horse serum
# T2 sequence (P81908 whole entry): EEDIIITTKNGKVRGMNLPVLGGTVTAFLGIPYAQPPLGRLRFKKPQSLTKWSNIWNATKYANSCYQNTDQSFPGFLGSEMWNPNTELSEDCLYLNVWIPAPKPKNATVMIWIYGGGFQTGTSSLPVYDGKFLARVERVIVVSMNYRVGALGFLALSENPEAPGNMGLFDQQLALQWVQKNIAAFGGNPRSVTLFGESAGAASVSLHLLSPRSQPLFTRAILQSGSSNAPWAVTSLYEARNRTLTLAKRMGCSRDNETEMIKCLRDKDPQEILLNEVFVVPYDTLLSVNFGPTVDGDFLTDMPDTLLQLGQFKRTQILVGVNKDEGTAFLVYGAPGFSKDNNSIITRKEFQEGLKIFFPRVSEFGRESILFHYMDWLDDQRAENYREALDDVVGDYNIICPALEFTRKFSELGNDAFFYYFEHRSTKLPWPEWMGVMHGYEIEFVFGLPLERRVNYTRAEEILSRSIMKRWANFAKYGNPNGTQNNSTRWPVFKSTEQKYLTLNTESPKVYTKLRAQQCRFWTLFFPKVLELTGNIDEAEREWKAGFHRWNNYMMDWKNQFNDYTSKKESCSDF
# Procedure: Enzyme (AChE/BChE) inhibition activities were measured by spectrophotometric method as described in literature (Ellman et al. [1961]). Reported protocol and assay conditions were followed throughout (Rocha et al. [1993]). AChI and AChCl substrates were used to assay AChE and BChE, respectively. DTNB was used as reagent for the measurement of cholinesterase activity. Solution containing DTNB (0.2 mM) in 62 mM sodium phosphate buffer (pH 8.0, 880 μL), test compound solution (40 μL) and AChE or BChE solution (40 μL) were mixed, incubated for 15 min (25 °C). AChE or BChE (40 μL), were added to initiate the respective solution. The hydrolysis of AChE and BChE were noted by naked eye due to formation of yellow colour 5-thio-2-nitrobenzoate anion at a wavelength of 412 nm (15 min). Reactions were performed in triplicate in a BMS spectrophotometer (USA) and the results presented are average values.
# [3] = listed as isotalatazidine hydrate
# [4] = listed as isotalatizidine hydrate
# T1 sequence (O42275 24-633): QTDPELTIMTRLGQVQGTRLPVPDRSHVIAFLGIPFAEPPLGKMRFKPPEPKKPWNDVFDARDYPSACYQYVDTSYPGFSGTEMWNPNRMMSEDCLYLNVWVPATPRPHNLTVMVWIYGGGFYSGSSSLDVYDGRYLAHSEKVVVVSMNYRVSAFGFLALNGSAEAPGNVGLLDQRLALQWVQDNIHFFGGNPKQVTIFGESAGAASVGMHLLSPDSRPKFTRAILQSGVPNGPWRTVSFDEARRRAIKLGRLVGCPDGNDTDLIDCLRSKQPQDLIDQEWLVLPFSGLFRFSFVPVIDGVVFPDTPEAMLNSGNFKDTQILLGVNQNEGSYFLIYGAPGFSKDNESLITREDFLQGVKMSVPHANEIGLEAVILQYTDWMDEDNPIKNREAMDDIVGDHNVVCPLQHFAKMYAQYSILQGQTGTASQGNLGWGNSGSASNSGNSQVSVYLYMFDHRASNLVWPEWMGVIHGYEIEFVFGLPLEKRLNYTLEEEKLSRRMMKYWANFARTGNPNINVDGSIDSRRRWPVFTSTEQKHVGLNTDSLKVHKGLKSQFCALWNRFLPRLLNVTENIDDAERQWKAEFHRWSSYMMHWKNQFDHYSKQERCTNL
smiles,measurement,setting,value
"CCN1CC2(COC)CCC(O)C34C5CC6C(OC)CC(O)(C(CC23)C14)C5C6O (centres unmarked) [Isotalatizidine hydrate, isotalatizidine hydrate]",Type of inhibition (AChE),[1],Competitive
same,Type of inhibition (AChE),[1]; [3],competitive type inhibition
same,Type of inhibition (AChE),[1]; [4],competitive inhibitor
same,IC50,"[1]; standard error of mean of five assays, DTNB, pH 8.0, 25 °C, read-out: AChE ± SEM (IC50)",12.1 ± 0.43 µM
same,Type of inhibition (BChE),[2],Competitive
same,Type of inhibition (BChE),[2]; [3],competitive type inhibition
same,Type of inhibition (BChE),[2]; [4],competitive inhibitor
same,IC50,"[2]; standard error of mean of five assays, DTNB, pH 8.0, 25 °C, read-out: BChE ± SEM (IC50)",21.4 ± 0.23 µM
